Results from ChEMBL document CHEMBL1201862, “PubChem BioAssay data set” (2004).
The source made the active and inactive calls.

Legend:
[1] = non-specific cell cytotoxicity, dose response, cytotoxicity control for PAX8 inhibitor project, plate reader, dry powder samples (AID 743021); type: functional, cell-based
[2] = IGROV1 ovarian cancer cell cytotoxicity, dose response, PAX8 inhibitor project, plate reader, dry powder samples (AID 743043); type: functional, cell-based; conditions: IGROV-1
[3] = cytotoxicity in OVCAR8 ovarian cancer cells, dose response, PAX8 project, cell-based, plate reader, dry powder samples (AID 743197); type: functional; conditions: OVCAR-8
Paired box protein Pax-8 = Paired box protein Pax-8 (Homo sapiens, UniProt Q06710); experiment: inhibitors of PAX8-driven TPO luciferase reporter, dose response, RMG-I cells, cherry-pick (AID 687027); type: functional, cell-based;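 note: luciferase reporter driven by Pax8 target thyroperoxidase promoter measured by SteadyGlo luminescence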
Chain of Paired box protein Pax-8 (Q06710 whole entry): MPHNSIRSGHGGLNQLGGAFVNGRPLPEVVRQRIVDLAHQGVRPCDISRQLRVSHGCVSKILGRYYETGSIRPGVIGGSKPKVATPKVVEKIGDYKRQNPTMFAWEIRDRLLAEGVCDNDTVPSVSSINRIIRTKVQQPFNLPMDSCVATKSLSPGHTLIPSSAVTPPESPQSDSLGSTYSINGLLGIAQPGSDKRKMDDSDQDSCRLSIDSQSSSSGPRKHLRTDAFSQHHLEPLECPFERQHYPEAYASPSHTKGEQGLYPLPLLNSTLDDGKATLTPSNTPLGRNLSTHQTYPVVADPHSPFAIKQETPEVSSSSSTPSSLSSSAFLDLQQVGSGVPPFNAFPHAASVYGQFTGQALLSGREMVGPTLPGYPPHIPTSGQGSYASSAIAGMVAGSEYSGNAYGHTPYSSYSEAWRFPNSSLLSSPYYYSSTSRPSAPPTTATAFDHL

[4] = P. falciparum late gametocyte killing, dose response, luminescence (AID 1117278); type: functional, cell-based;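 note: gametocytes exposed to compound for 24 hours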
[5] = Jurkat T cell cytotoxicity, dose response, cytotoxicity control for P. falciparum gametocyte viability project, luminescence (AID 1117277); type: functional, cell-based;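 note: potency reflects loss of cellular ATP meaning fewer viable cells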
[6] = ADAM10 protease inhibitors, dose response, selectivity assay for ADAM17 exosite inhibitor project, biochemical, FRET peptide substrate, recombinant human ADAM10 (AID 743259);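 note: ADAM10 enzyme cleaving a FRET peptide substrate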
[7] = biological target: Disintegrin and metalloproteinase domain-containing protein 17 (Homo sapiens, UniProt P78536); experiment: exosite inhibitors of ADAM17, dose response, biochemical (AID 743260)
Chain of Disintegrin and metalloproteinase domain-containing protein 17 (P78536 whole entry, the tested form may be a part): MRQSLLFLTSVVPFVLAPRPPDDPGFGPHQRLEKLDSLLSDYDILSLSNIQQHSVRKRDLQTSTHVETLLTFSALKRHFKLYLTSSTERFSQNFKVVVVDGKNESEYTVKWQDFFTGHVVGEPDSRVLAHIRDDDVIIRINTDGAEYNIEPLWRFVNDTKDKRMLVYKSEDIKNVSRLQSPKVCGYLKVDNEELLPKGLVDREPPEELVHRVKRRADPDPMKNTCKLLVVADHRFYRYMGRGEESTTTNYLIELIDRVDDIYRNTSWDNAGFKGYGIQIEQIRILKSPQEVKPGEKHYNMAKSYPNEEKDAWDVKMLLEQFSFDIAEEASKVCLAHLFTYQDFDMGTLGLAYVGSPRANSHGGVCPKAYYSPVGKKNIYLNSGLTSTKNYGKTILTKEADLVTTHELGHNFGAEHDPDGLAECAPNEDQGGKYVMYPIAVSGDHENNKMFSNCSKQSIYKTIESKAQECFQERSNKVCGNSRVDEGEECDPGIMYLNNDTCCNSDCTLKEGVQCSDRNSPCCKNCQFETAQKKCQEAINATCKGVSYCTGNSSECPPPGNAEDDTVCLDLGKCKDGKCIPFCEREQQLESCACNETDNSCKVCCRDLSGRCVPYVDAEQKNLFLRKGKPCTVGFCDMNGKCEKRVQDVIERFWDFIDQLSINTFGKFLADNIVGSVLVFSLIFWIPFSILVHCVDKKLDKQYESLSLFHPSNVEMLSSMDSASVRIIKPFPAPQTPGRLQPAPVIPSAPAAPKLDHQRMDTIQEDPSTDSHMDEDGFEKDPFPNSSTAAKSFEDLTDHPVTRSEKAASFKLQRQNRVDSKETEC

Ephrin type-A receptor 4 = Ephrin type-A receptor 4 (Mus musculus, UniProt Q03137); experiment: inhibitors of EphA4 binding to KYL peptide, primary screen, biochemical, colorimetric, mouse EphA4 (AID 689); type: functional
Chain of Ephrin type-A receptor 4 (Q03137 whole entry): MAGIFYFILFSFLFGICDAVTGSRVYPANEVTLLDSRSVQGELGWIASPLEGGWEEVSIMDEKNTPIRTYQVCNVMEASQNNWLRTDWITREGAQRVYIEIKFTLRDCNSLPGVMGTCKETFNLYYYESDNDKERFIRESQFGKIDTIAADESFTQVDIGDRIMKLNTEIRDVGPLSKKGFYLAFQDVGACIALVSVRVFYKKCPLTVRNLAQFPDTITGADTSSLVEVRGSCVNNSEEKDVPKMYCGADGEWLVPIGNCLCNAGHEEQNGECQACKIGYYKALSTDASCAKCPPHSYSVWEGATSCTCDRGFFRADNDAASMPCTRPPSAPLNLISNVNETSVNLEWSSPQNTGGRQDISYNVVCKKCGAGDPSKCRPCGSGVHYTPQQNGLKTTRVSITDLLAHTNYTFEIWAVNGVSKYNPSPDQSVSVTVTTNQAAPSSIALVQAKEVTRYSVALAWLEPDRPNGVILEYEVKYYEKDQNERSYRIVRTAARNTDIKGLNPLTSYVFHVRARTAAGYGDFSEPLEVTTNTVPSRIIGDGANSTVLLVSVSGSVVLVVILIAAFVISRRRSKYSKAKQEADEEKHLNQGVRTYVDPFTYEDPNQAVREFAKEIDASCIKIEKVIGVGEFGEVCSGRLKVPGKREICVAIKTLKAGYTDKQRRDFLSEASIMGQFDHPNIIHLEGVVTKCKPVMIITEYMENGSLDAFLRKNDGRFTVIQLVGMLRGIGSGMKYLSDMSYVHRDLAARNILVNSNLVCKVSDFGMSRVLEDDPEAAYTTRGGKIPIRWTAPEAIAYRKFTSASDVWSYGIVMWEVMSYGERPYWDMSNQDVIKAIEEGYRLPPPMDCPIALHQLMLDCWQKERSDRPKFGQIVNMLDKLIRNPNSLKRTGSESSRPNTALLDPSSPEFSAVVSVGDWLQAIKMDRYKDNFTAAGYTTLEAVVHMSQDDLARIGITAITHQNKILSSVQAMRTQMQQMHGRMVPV

cells = type: functional
[8] = inhibitors of intracellular T. cruzi replication, confirmation, NIH3T3 host cells, beta-gal luminescence (AID 2044); type: functional, cell-based;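 note: intracellular parasites grown in NIH/3T3 mouse fibroblasts as host cells; luminescent beta-galactosidase reporter signal from transgenic T. cruzi replicating inside host cells; inhibitors lower the luminescence signal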
CHO = experiment: cytotoxicity in TLR9-MyD88 CHO cells, dose response, cytotoxicity control for TLR9-MyD88 binding inhibitor project, cell-based, luminescence (AID 588339); type: functional, hamster; conditions: Cricetulus griseus;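 note: CHO cells stably coexpressing TLR9 and MyD88 fusions from primary screen; compound exposure lasted 48 hours before viability readout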
[9] = THP-1 cell cytotoxicity, dose response, cytotoxicity control for non-replicating M. tuberculosis project (AID 489025); type: functional
Protein RecA = biological target: T1, Protein RecA (Mycobacterium tuberculosis, UniProt P9WHJ3); experiment: Fluorescence Cell-Free Homogeneous Dose Retest to Identify Inhibitors of RecA-Intein Splicing Activity. [Related pubchem assays (depositor defined):AID2097, AID2223, AID489010, AID492950]; type: functional
T1 sequence (P9WHJ3 whole entry): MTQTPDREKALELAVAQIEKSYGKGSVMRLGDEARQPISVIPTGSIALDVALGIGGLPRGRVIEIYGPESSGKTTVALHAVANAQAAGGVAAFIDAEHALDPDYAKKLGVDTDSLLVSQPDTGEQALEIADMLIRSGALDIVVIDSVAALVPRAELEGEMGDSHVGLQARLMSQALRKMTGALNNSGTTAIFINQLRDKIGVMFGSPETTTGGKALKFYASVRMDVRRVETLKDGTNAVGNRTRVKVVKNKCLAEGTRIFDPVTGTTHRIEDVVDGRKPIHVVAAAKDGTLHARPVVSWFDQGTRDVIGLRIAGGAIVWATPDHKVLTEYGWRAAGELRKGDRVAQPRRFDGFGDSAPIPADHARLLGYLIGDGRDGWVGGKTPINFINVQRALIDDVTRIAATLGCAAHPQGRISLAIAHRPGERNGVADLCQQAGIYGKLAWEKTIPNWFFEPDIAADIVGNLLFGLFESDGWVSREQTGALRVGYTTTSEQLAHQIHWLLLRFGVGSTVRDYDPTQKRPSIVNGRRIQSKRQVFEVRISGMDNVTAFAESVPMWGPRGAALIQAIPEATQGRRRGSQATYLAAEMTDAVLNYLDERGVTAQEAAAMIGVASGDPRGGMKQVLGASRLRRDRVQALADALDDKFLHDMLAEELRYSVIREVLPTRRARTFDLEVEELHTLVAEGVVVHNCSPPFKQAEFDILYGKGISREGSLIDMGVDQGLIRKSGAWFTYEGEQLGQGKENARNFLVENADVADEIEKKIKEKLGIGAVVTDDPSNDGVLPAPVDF

Beta Lactamase = Beta Lactamase (Pseudomonas aeruginosa, UniProt Q932Y6); experiment: beta-lactamase reporter inhibitor potency, dose response, artefact control for TLR9-MyD88 binding inhibitor project, BLA reporter cells, FRET fluorescence (AID 588341); type: cell-based;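 note: cell based assay in CHO-K1 cells stably expressing beta-lactamase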
Chain of Beta Lactamase (Q932Y6 whole entry): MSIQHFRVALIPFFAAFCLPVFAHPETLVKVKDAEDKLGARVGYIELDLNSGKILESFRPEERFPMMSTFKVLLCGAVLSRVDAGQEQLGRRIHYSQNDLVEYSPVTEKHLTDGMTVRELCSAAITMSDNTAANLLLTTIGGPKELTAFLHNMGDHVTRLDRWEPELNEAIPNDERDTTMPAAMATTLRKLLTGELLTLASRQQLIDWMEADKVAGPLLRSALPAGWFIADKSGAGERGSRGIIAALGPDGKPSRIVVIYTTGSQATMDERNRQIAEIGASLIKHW

[10] = biological target: T2, Replicative DNA helicase DnaB (Mycobacterium tuberculosis, UniProt P9WMR3); experiment: DnaB intein splicing inhibitors, dose response, biochemical, cell-free fluorescence (AID 449749); type: functional
T2 sequence (P9WMR3 whole entry): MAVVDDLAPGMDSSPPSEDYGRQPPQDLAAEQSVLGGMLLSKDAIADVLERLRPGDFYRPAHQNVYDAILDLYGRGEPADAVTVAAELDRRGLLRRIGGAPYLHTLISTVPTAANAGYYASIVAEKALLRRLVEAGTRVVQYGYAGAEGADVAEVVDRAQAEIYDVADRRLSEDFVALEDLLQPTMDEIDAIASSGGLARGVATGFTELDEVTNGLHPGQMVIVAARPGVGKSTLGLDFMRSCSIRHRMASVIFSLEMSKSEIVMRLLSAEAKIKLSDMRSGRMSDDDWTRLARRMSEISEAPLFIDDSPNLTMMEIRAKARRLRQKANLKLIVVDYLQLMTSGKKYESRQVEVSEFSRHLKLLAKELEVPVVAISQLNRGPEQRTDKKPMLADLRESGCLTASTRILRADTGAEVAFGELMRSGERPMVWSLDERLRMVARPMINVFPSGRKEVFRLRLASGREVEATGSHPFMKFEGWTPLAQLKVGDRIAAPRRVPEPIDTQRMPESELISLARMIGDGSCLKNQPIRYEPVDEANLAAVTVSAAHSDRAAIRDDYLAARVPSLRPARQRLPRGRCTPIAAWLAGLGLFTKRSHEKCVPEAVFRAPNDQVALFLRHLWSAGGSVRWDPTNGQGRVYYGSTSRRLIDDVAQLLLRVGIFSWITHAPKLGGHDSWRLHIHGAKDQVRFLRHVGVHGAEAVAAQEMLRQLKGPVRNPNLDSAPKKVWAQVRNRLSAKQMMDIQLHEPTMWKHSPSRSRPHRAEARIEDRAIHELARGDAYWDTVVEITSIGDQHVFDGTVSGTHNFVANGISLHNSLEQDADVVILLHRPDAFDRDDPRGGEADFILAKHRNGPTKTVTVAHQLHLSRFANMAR

[11] = biological target: T3, Heat shock factor protein 1 (Mus musculus, UniProt P38532); experiment: inhibition of MG132-induced HSE-luciferase signal, confirmation, cell-based, NIH3T3, luminescence, dose retest (AID 2382); type: functional;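 note: NIH3T3 fibroblasts with HSF1-driven luciferase reporter stressed by proteasome inhibitor MG132; luminescence from HSF1-driven luciferase expression after 8 hours of MG132 stress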
T3 sequence (P38532 whole entry): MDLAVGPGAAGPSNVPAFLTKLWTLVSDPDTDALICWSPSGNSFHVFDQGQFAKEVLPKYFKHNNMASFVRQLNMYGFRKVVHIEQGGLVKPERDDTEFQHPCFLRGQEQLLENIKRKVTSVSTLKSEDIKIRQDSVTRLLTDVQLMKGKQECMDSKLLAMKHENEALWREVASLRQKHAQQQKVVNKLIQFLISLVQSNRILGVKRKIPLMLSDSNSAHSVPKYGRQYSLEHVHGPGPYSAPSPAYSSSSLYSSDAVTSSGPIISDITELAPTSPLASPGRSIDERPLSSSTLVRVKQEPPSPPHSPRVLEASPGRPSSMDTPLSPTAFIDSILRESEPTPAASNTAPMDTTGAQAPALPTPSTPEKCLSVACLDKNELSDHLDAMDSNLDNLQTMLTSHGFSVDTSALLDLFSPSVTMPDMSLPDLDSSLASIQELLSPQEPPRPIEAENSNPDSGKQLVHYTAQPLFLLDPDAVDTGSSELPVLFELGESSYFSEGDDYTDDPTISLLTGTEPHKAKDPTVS

[12] = cytotoxicity toward NIH3T3 fibroblasts, dose response, counter-screen, cell-based, ATP luminescence, mouse fibroblasts (AID 2010); type: functional;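 note: cells exposed to compound for about 90 hours before reading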
[13] = biological target: T4, Corticotropin-releasing factor receptor 2/Corticotropin-releasing factor-binding protein (Homo sapiens, UniProt P24387+Q13324); experiment: activators of CRF receptor 2 with binding protein – uHTS hits, confirmation (AID 602473); type: functional; conditions: read-out: EC50_Mean
T4 sequence (Q13324 whole entry): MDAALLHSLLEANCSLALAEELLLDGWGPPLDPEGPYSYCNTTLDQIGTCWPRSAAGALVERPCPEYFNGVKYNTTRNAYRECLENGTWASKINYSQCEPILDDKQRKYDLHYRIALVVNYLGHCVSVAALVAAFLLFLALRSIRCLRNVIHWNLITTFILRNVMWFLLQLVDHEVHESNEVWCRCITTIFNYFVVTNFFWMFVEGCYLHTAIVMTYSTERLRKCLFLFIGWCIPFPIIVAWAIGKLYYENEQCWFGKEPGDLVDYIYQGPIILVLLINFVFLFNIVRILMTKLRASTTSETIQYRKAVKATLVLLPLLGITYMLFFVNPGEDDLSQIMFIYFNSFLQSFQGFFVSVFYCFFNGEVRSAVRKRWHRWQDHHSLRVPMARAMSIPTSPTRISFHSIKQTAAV
T4 sequence (P24387 whole entry): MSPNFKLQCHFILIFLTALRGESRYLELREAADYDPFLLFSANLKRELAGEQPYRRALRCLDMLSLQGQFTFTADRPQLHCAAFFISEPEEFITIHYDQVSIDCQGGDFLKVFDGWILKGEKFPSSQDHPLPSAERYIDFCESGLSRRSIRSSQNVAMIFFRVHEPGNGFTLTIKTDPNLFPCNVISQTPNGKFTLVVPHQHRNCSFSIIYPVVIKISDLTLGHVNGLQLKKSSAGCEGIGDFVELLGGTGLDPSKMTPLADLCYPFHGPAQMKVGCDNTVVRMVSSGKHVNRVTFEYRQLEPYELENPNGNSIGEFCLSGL

SMILES: C[C@@H]1CN([C@H](C)CO)C(=O)c2cc(NC(=O)Nc3ccc(C(F)(F)F)cc3)ccc2O[C@@H](C)CCCCO[C@H]1CN(C)Cc1ccc2c(c1)OCO2
- AC50 [1]: 66.4 µM (active)
- AC50 [2]: 26.7 µM (active)
- AC50 [3]: 31.6 µM (active)
- AC50 (Paired box protein Pax-8): 7.63 µM (active)

SMILES: CCOC(=O)CN1C2=NCCN2c2ccccc21
- IC50 [4]: > 109 µM (inactive)
- IC50 [5]: > 83.4 µM (inactive)

SMILES: CN(Cc1ccc(F)cc1)C(=O)c1cccc(OCc2ccccc2)c1
- IC50 [6]: 21.5 µM (inactive)
- IC50 [7]: > 69.5 µM (inactive)

SMILES: Cn1cc([N+](=O)[O-])c(C(=O)Nc2ccc3c(c2)OCCO3)n1
- IC50 (Ephrin type-A receptor 4): > 100 µM (not active)

SMILES: CCS(=O)(=O)c1ncc(Cl)c(C(=O)Nc2ccc(C)cc2)n1
- IC50 (cells): 5.21 µM (active)
- AC50 [1]: 34.9 µM (active)
- EC50 [8]: 2.31 µM (active)
- IC50 (CHO): 3.98 µM (active)
- CC50 [9]: 21 µM (active)
- EC50 (Protein RecA): 6.94 µM (active)
- IC50 (Beta Lactamase): 7.65 µM (active)
- AC50 [10]: 5.56 µM (active)
- EC50 [11]: 5.18 µM (inconclusive)
- EC50 [12]: 4.9 µM (active)
- AC50 (Paired box protein Pax-8): 17.2 µM (active)

SMILES: CSc1ccccc1/N=C/c1nc(-c2ccccc2)oc1O
- IC50 (Ephrin type-A receptor 4): 37.6 µM (active)

SMILES: Cc1sc2c(=O)n3c(nc2c1C(=O)NC1CCCCC1)CCCCC3
- IC50 [4]: > 109 µM (inactive)
- IC50 [5]: > 83.3 µM (inactive)

SMILES: C=CCn1c(SCC(=O)Nc2ncc(Cc3cc(C(F)(F)F)ccc3Cl)s2)nnc1-c1ccncc1
- IC50 (Ephrin type-A receptor 4): > 100 µM (not active)

SMILES: O=[N+]([O-])c1ccc(N(c2ccccc2)c2ccccc2)cc1
- IC50 (CHO): > 49.7 µM (inactive)
- EC50 [13]: 24.3 µM (active)
- IC50 (Ephrin type-A receptor 4): 10.8 µM (active)
